Data reported in patent US4550118A, “Heterocyclic compounds” (Ikeda Mohando Co., Ltd., priority 1982, dated 1985).

Legend:
[1] = system: acid secretion in pylorus-ligated rats; experiment: Anti-secretory effect (histamine-stimulated gastric acid secretion) in pylorus-ligated rat; type: in vivo, male wistar rats; conditions: 30 min before histamine 3 mg/kg s.c., ** at 1% vs control; for inhibition in vivo at 2 mg/kg: Rattus norvegicus, sc, 3 h, 2 mg/kg s.c., n=5, * significant at 5%, read-out: inhibitory effect of acid secretion (%) at 2 mg/kg s.c.
Procedure: (A) Anti-secretory Effect in Pylorus-ligated Rat
After 24 hr fasting, male wistar rats weighing about 160 g were anesthetized by intraperitoreal injection of urethans 1.2 g/kg. Then, after ligating the pylorus and the esophagus, the proventriculus was incised and a double polyethylene cannula was inserted. The gastric wall was washed out with 5 ml of physiological saline every 30 minutes and the amount of acid contained in the saline after washing was measured by titration. After measuring the basal acid secretion of the pylorus ligated rats three times, the compounds of the invention, 2 mg/kg, were administered subcutaneously and, 30 minutes thereafter, histamine 3 mg/kg, was administered also subcutaneously. Then, the amounts of acid secretion were measured for 3 hours. […] Then, an inhibition rate was calculated in accordance with the following formula, in relation to the increment values measured for the control group. [formula]
One group included five examples.

[2] = molecular target: T1, histamine H2 receptor in atria (Cavia porcellus, UniProt P47747); experiment: Histamine H2 receptor inhibition effect by isolated guinea pig right atrium preparation (negative chronotropic effect); type: cell-based, Male Hartley Guinea Pig; conditions: 5×10^-6 mol sample 3 minutes prior to histamine, mean of five; for Kb: read-out: inhibitory effect of histamine H2 receptor in atria (pA2 value) (converted)
T1 construct: right atrium was isolated; from tissue; host or cells: isolated right atrium of male Hartley guinea pig
T1 sequence (P47747 whole entry): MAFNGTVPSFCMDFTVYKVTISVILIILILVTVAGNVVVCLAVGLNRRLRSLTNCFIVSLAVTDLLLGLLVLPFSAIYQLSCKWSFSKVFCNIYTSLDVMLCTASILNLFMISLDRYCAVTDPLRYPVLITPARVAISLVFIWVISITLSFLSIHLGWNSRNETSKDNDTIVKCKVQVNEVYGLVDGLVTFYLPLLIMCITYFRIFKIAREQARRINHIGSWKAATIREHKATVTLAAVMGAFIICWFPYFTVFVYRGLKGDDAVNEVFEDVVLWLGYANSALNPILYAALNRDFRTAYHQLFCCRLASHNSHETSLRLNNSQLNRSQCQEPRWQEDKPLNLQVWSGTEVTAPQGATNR
Procedure: (B) Measurement of Histamine H2 Receptor Inhibition Effect by Isolated Guinea Pig Right Atrium Preparation
Male Hartley Guinea Pig weighing around 400 g was sacrified by decapitation, and right atrium was isolated. The right atrium was suspended in an organ bath (50 ml) containing modified Ringer solution. Under application of a tensile load of 1 g, the heart rate was recorded by means of a polygraph. Histamine was applied cumulatively from 1×10^-7 mol to 3×10^-4 mol and a cumulative dosage response curve was drawn. Then, 5×10^-6 mol of the sample was administered 3 minutes prios to histamine application. The negative logarithmic value (pA2) of the specimen molarity required for shifting the curve to the right to double concentration was calculated.

Molecule	inhibitory effect of histamine H2 receptor in atria (pA2 value) [2]	Kb [2]	inhibitory effect of acid secretion (%) at 2 mg/kg s.c. ([1]; n=5, * significant at 5%)	inhibition in vivo at 2 mg/kg [1]
1-methyl-3-pyridylideneimino-5-[2-<5-(2-dimethylaminomethylbenzimidazolyl)methylthio>ethyl]-1H-1,2,4-triazole-5-amine [Example 100]	5.75		72%	
CNC(=NC#N)NCCCCOc1ccc2[nH]c(CN(C)C)nc2c1 [Example 2, N-cyano-N'-methyl-N"-[4-<5-(2-dimethylaminomethylbenzimidazolyl)oxy>butyl]guanidine]		1510 nM		75%
CNC(=NC#N)NCCCOc1ccc2[nH]c(CN3CCCC3)nc2c1 [Example 3]		1170 nM		54%
CNC(=NC#N)NCCCOc1ccc2[nH]c(CN3CCCCC3)nc2c1 [Example 5, N-cyano-N'-methyl-N"-{3-[5-<2-(1-piperidinomethyl)benzimidazolyl>oxy]propyl}guanidine]		1380 nM		65%
CNC(=C[N+](=O)[O-])NCCOc1ccc2[nH]c(CN3CCCC3)nc2c1 [Example 25, 1-nitro-2-methylamino-2-[2-<5-(2-(1-pyrrolidinomethyl)benzimidazolyl)oxy>ethylamino]ethylene]		631 nM		99%
CNC(=C[N+](=O)[O-])NCCCOc1ccc2[nH]c(CN3CCCC3)nc2c1 [Example 28, 1-nitro-2-methylamino-2-[3-<5-(2-(1-pyrrolidinomethyl)benzimidazolyl)oxy>propylamino]ethylene]		2450 nM		64%
CNC(=C[N+](=O)[O-])NCCCCOc1ccc2[nH]c(CN3CCCCC3)nc2c1 [Example 30, 1-nitro-2-methylamino-2-{4-[5-<2-(1-piperidinomethyl)benzimidazolyl>oxy]butylamino}ethylene]		1380 nM		78%
CN(C)Cc1nc2cc(CSCCNC(N)=NC#N)ccc2[nH]1 [Example 34, N-cyano-N'-[2-<5-(2-dimethylaminomethylbenzimidazolyl)methylthio>ethyl]guanidine]		832 nM		52%
CNC(=NC#N)NCCCSCc1ccc2[nH]c(CN(C)C)nc2c1 [Example 37, N-cyano-N'-methyl-N"-[3-<5-(2-dimethylaminomethylbenzimidazolyl)methylthio>propyl]guanidine]		1660 nM		38%
CNC(=C[N+](=O)[O-])NCCSCc1ccc2[nH]c(CN(C)C)nc2c1 [Example 42, 1-nitro-2-methylamino-2-[2-<5-(2-dimethylaminomethylbenzimidazolyl)methylthio>ethylamino]ethylene]		1450 nM		93%
C#CCNC(=C[N+](=O)[O-])NCCSCc1ccc2[nH]c(CN(C)C)nc2c1 [Example 44, 1-nitro-2-propargylamino-2-[2-<5-(2-dimethylaminomethylbenzimidazolyl)methylthio>ethylamino]ethylene]		631 nM		57%
CN(C)Cc1nc2cc(CSCCNC(N)=NS(=O)(=O)c3ccccc3)ccc2[nH]1 [Example 46, N-benzenesulfonyl-N'-[2-<5-(2-dimethylaminomethylbenzimidazolyl)methylthio>ethyl]guanidine]		1170 nM		72%
O=c1ccnc(NCCCOc2ccc3[nH]c(CN4CCCCC4)nc3c2)[nH]1 [Example 59, 2-[3-<5-(2-(1-piperidinomethyl)benzimidazolyl)oxy>propylamino]-4-pyrimidone]		891 nM		74%

Second part, led by results:

inhibitory effect of histamine H2 receptor in atria (pA2 value) [2]	Kb [2]	Molecule	inhibitory effect of acid secretion (%) at 2 mg/kg s.c. ([1]; n=5, * significant at 5%)	inhibition in vivo at 2 mg/kg [1]
	3550 nM	CN(C)Cc1nc2cc(OCCCNc3ncc(CN(C)C)c(=O)[nH]3)ccc2[nH]1 [Example 60, 5-dimethylaminomethyl-[3-<5-(2-dimethylaminomethylbenzimidazolyl)oxy>propylamino]-4-pyrimidone]		56%
	3090 nM	CN(C)Cc1cnc(NCCCOc2ccc3[nH]c(CN4CCCCC4)nc3c2)[nH]c1=O [Example 61, 5-dimethylaminomethyl-2-[3-<5-(2-(1-piperidinomethyl)benzimidazolyl)oxy>propylamino]-4-pyrimidone]		64%
	631 nM	CN(C)Cc1nc2cc(OCCCNc3ncc(Cc4ccc5c(c4)OCO5)c(=O)[nH]3)ccc2[nH]1 [Example 62, 5-[5-(1,3-benzodioxolyl)methyl]-2-[3-<5-(2-dimethylaminomethylbenzimidazolyl)oxy>propylamino]-4-pyrimidone]		84%
	4070 nM	O=c1[nH]c(NCCCOc2ccc3[nH]c(CN4CCCC4)nc3c2)ncc1Cc1ccc2c(c1)OCO2 [Example 63, 5-[5-(1,3-benzodioxolyl)methyl]-2-[3-<5-(2-(1-pyrrolidinomethyl)benzimidazolyl)oxy>propylamino]-4-pyrimidone]		78%
	5890 nM	O=c1[nH]c(NCCCOc2ccc3[nH]c(CN4CCCCC4)nc3c2)ncc1Cc1ccc2c(c1)OCO2 [Example 64, 5-[5-(1,3-benzodioxolyl)methyl]-2-[3-<5-(2-(1-piperidinomethyl)benzimidazolyl)oxy>propylamino]-4-pyrimidone]		76%
	4680 nM	O=c1[nH]c(NCCCOc2ccc3[nH]c(CN4CCCC4)nc3c2)ncc1Cc1cccnc1 [Example 67, 2-{3-[5-<2-(1-pyrrolidinomethyl)benzimidazolyl>oxy]propylamino}-5-(3-pyridylmethyl)-4-pyrimidone]		93%
	9550 nM	O=c1[nH]c(NCCCOc2ccc3[nH]c(CN4CCCCC4)nc3c2)ncc1Cc1cccnc1 [Example 68, 2-{3-[5-<2-(1-piperidinomethyl)benzimidazolyl>oxy]propylamino}-5-(3-pyridylmethyl)-4-pyrimidone]		90%
	851 nM	CN(C)Cc1nc2cc(CSCCNc3nccc(=O)[nH]3)ccc2[nH]1 [Example 72, 2-[2-<5-(2-dimethyaminomethylbenzimidazolyl)methylthio>ethylamino]-4-pyrimidone]		53%
	631 nM	CN(C)Cc1nc2cc(CSCCNc3ncc(CN(C)C)c(=O)[nH]3)ccc2[nH]1 [Example 73, 2-[2-<5-(2-dimethylaminomethylbenzimidazolyl)methylthio>ethylamino]-5-dimethylaminomethyl-4-pyrimidone]		91%
	1230 nM	CN(C)Cc1nc2cc(CSCCNc3ncc(Cc4cccnc4)c(=O)[nH]3)ccc2[nH]1 [Example 76, 2-[2-<5-(2-dimethylaminomethylbenzimidazolyl)methylthio>ethylamino]-5-(3-pyridylmethyl)-4-pyrimidone]		102%
	4070 nM	CN(C)Cc1nc2cc(OCCCNc3nnc(Cc4cccnc4)c(=O)[nH]3)ccc2[nH]1 [Example 83, 3-[3-<5-(2-dimethylaminomethylbenzimidazolyl)oxy>propylamino]-6-(3-pyridylmethyl)-1,2,4-triazine-5-one]		78%
	933 nM	CN(C)Cc1nc2cc(CSCCNc3nc(N)n[nH]3)ccc2[nH]1 [Example 96, 5-[2-<5-(2-dimethylaminomethylbenzimidazolyl)methylthio>ethyl]-1H-1,2,4-triazole-3,5-diamine]		
